The source of these data is patent publication EP0179667B1, “N6-substituted adenosines” (priority 1984, dated 1986).

Data set [1] addresses T1, adenosine A1 receptor (Rattus norvegicus, UniProt P25099).
T1 construct: Whole brain minus cerebellum and brainstem from male Long Evans rats (150-200 g) was homogenized; from tissue; host or cells: rat whole brain minus cerebellum and brainstem, membrane homogenate
T1 sequence (P25099 1-326): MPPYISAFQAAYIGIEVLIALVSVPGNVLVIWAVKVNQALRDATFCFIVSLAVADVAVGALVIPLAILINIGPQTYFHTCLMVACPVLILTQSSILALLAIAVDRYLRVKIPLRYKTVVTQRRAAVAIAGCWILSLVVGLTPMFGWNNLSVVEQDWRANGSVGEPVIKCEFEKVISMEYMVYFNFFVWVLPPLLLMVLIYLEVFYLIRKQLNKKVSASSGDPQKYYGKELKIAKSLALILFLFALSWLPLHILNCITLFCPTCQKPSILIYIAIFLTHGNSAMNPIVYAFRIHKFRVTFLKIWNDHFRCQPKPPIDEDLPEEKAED
Kind of data set: Adenosine Receptor Binding - A1 Receptor Affinity (RBA1). To be noted: [3H]-CHA, rat whole brain membranes; read-out: RBA-1. The protocol:
Adenosine Receptor Binding - A1 Receptor Affinity (RBA1)
Whole brain minus cerebellum and brainstem from male Long Evans rats (150-200 g) was homogenized in 30 volumes of ice-cold 0.05 M Tris-HCI buffer pH 7.7 using a Brinkman Polytron PT-10 (setting number 6 for 20 seconds) and centrifuged for ten minutes at 20,000 x g (Sorvall RC-2), 4°C. The supernatant was discarded, and the pellet was resuspended and centrifuged as before. The pellet was resuspended in 20 ml Tris-HCI buffer containing two International Units/ml of adenosine deaminase (Sigma type III from calf intestinal mucosa), incubated at 37°C for 30 minutes, then subsequently at 0°C for ten minutes. The homogenate was again centrifuged, and the final pellet was resuspended in ice-cold 0.05 M Tris-HCI buffer pH 7.7 to a concentration of 20 mg/ml original wet tissue weight and used immediately.
Tissue homogenate (10 mg/ml) was incubated in 0.05 M Tris-HCI buffer pH 7.7 containing 1.0 nM [^3H]-N^6-cyclohexyladenosine (^3H]-CHA) with or without test agents in triplicate for one hour at 25°C. Incubation volume was 2 ml. Unbound [^3H]-CHA was separated by rapid filtration under reduced pressure through Whatman glass fiber (GF/B) filters. The filters were rinsed three times with 5 ml of ice cold 0.05 M Tris-HCI buffer pH 7.7. The radio-labeled ligand retained on the filter was measured by liquid scintillation spectrophotometry after shaking the filters for one hour or longer on a mechanical shaker in 10 ml of Beckman Ready Solv HP scintillation cocktail.
Nonspecific binding was defined as the binding which occurred in the presence of 1 mM thophylline. […] The Scatchard plot was calculated by linear regression of the line obtained by plotting the amount of radioligand bound (pmoles/gram of tissue) versus [formula] Since the amount of radioligand bound was a small fraction of the total amount added, free radioligand was defined as the concentration (nM) of radioligand added to the incubation mixture. The Hill coefficient was calculated by linear regression of the line obtained by plotting the log of the bound radioligand vs the log of the [formula] The maximal number of binding sites (Bmax) was calculated from the Scatchard plot.

Data set [2] has as its target T2, adenosine A2 receptor (Rattus norvegicus, UniProt P30543).
T2 construct: 5 mg original tissue weight of rat weight of rat striatal membranes; tissue Pel-Freez (Rogers, Arkansas); host or cells: rat striatum, membrane preparation
Put plainly: Adenosine Receptor Binding - A2 Receptor Affinity (RBA2). To be noted: [3H]NECA, rat striatal membranes; read-out: RBA-2. The protocol: Adenosine Receptor Binding - A2 Receptor Affinity (RBA2)
Brains from 200-500 g mixed sex Sprague-Dawley rats were purchased from Pel-Freez (Rogers, Arkansas). […] Brains were thawed and then kept on ice while the striata were dissected out. […] When needed, tissue was thawed at room temperature, disrupted in a Polytron, and kept on ice until used.
All incubations were for 60 minutes at 25°C in 12x75 mm glass tubes containing 1 ml Tris with 5 mg original tissue weight of rat weight of rat striatal membranes, 4 nM [^3H]-N-ethyl adenosine-5'-carboxamide ([^3H]NECA), 50 nM N^6-cyclopentyladenosine (to eliminate A1 receptor binding), 10 mM MgCl2, 0.1 units/ml of adenosine deaminase and 1% dimethylsulfoxide. N^6-Cyclopentyladenosine was dissolved at 10 mM in 0.02 N HCI and diluted in Tris. […] Test compounds were dissolved at 10 mM in dimethylsulfoxide on the same day as the experiment, and diluted in dimethylsulfoxide to 100x the final incubation concentration. […] [^3H]NECA was diluted to 40 nM in Tris. The membrane suspension (5 mg/0.79 ml) contained sufficient MgC12 and adenosine deaminase to give 10 mM and 0.1 units/ml, respectively, final concentration in the incubation. For test compounds with lC50 values less than 1 µM, the order of additions was test compound (10 µl), N^6-cyclopentyladenosine (100 µl), [^3H]NECA (100 µl), and membranes (0.79 ml). […] After all additions, the rack of tubes was vortexed, and the tubes were then incubated for 60 min at 25°C in a shaking water bath. The rack of tubes was vortexed an additional time halfway through the incubation.
incubations were terminated by filtration through 2.4 cm GF/B filters under reduced pressure. Each tube was filtered as follows: the contents of the tube were poured onto the filter, 4 ml of ice-cold Tris were added to the tube and the contents poured onto the filter, and the filter was washed twice with 4 ml of ice-cold Tris. The filtration was complete in about twelve seconds.
Nonspecific binding was defined as binding in the presence of 100 µM N^6-cyclopentyladenosine, and specific binding was defined as total binding minus nonspecific binding. The IC50 was calculated by weighed nonlinear least squares curve-fitting to the mass-action equation. [formula] • where Y is cpm bound • T is cpm total binding without drug • S is cpm specific binding without drug • D is the concentration of drug • and K is the IC50 of the drug Weighting factors were calculated under the assumption that the standard deviation was proportional to the predicted value of Y. Nonspecific binding was treated as a very large (infinite) concentration of drug in the computer analysis.

The subject of data set [3] is Swiss-Webster male mice. Put plainly: Mouse Activity and Screen Test Procedure (MAST): locomotor activity in actophotometer. It is filed as in vivo. To be noted: one hour prior to testing. The protocol:
Nine unfasted Swiss-Webster male mice weighing 20-30 g equally divided into three groups for each drug dose to be tested. That is, data for each dose level was generated by three separated groups of three mice each. A minimum of three dose levels (10, 30, and 100 mg/kg) are tested for each drug. Treatments are administered intraperitoneally one hour prior to testing. All dosages are calculated as parent compound and given in volumes of 10 ml/kg. […] Control animals are injected with Methocel. […] The actophotometer consists of a cylindrical chamber whose center is occupied by another cylinder which contains the illumination for six photocells located on the perimeter of the chamber. Six light-beam interruptions equal one count. […] Data: The data obtained from the screen test are expressed as percent of mice falling off the screen. Data derived from locomotor activity of drug treated mice are compared to the activity of vehicle treated animals and are expressed as percent inhibition of spontaneous locomotion. All percentages reported for inhibition of locomotion (LI) are based upon data accumulated for one hour. […] An overall dose rating is obtained by the following criteria: LAD refers to the lowest dose at which an A rating is achieved. […] The compounds are identified in the Examples.

Data set [4] concerns Swiss-Webster male mice. Kind of data set: Mouse Activity and Screen Test Procedure (MAST): screen test (ST). To be noted: one hour postinjection. It is filed as in vivo. From the text:
The compounds of the invention are new chemical substances which are useful as pharmaceutical agents for the treatment of psychoses. The antipsychotic activity of representative compounds of the invention was established by the Mouse Activity and Screen Test Procedrue (MAST) described below.
Nine unfasted Swiss-Webster male mice weighing 20-30 g equally divided into three groups for each drug dose to be tested. That is, data for each dose level was generated by three separated groups of three mice each.
A minimum of three dose levels (10, 30, and 100 mg/kg) are tested for each drug. Treatments are administered intraperitoneally one hour prior to testing. All dosages are calculated as parent compound and given in volumes of 10 ml/kg. Compounds are dissolved or suspended in 0.2% Methocel. Control animals are injected with Methocel.
Testing: A two part testing procedure is started one hour postinjection. First, the screen test (ST) is performed (see Pharmac. Biochem. Behav. 6, 351-353, 1977). Briefly this test consists of placing mice on individual wire screens which are then rotated 180 degrees at the start of a 60 second observation period. The number of mice falling off the inverted screen is recorded.
Data: The data obtained from the screen test are expressed as percent of mice falling off the screen. Data derived from locomotor activity of drug treated mice are compared to the activity of vehicle treated animals and are expressed as percent inhibition of spontaneous locomotion. All percentages reported for inhibition of locomotion (LI) are based upon data accumulated for one hour. Both phases of testing are graded: A=60-100%; G=31-59%; and N=0-30%. An overall dose rating is obtained by the following criteria:
LAD refers to the lowest dose at which an A rating is achieved. […] Utilizing this procedure, an overall dose rating of A was obtained for the noted compound at the indicated dose. The compounds are identified in the Examples.

T2 sequence (P30543 whole entry): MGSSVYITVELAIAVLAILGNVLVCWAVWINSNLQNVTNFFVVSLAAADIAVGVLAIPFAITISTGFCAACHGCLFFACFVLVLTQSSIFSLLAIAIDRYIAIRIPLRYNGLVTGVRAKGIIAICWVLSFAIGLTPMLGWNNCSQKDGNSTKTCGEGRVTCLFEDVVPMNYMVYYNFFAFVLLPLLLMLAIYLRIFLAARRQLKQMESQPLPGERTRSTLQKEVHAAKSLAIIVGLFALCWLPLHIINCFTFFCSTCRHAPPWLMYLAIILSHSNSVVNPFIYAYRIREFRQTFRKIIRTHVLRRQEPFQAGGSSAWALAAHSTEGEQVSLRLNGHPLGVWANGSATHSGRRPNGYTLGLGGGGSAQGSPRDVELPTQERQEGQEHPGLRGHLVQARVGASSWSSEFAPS

Take `COc1cccc2c1CCC[C@H]2Nc1ncnc2c1ncn2[C@@H]1O[C@H](CO)[C@@H](O)[C@H]1O` [Example 11, (R)-N^6-[5-methoxy-1-aminotetralin]-adenosine]: the IC50 is 0.444 µM in data set [1] and 2.61 µM in data set [2].
In the case of `CC1(C)O[C@@H]2[C@H](O1)[C@@H](CO)O[C@H]2n1cnc2c(NC3CCCc4ccccc43)ncnc21` (stereo partly drawn) [Example 12, N^6-(1-tetralinyl)-2',3'-O-isopropylidene-adenosine], in data set [1], the IC50 stood at 22.4 µM. Besides, the “Inhibition of mouse locomotor activity” value in data set [3] (3 mg/kg intraperitoneally) is recorded as 3%; in data set [3] (10 mg/kg intraperitoneally) it was −1%; in data set [3] (30 mg/kg intraperitoneally), −16%. Moreover, the Screen test failure in data set [4] (3 mg/kg intraperitoneally), in data set [4] (10 mg/kg intraperitoneally) and in data set [4] (30 mg/kg intraperitoneally) was 0% each time.
As for `O=C(OC[C@H]1O[C@@H](n2cnc3c(NC4CCCc5ccccc54)ncnc32)[C@H](O)[C@@H]1O)c1ccccc1` (stereo partly drawn) [Example 13, N^6-(1-tetralinyl)-5'-benzoyladenosine], the values for the IC50 in data set [1] and in data set [2] were 1.06 µM and 7.92 µM, respectively.
For the compound `CCOC(=O)OC[C@H]1O[C@@H](n2cnc3c(NC4CCCc5ccccc54)ncnc32)[C@H](OC(=O)OCC)[C@@H]1OC(=O)OCC` (stereo partly drawn) [Example 19, N^6-1-tetralinyl-2',3',5'-triethylcarbonate-adenosine], the “Inhibition of mouse locomotor activity” value in data set [3] (1 mg/kg intraperitoneally) came to 42%; in data set [3] (3 mg/kg intraperitoneally) it was 57%; in data set [3] (10 mg/kg intraperitoneally), 91%; in data set [3] (30 mg/kg intraperitoneally) it was 95%. Moreover, the Screen test failure in data set [4] (1 mg/kg intraperitoneally) worked out at 11%; in data set [4] (3 mg/kg intraperitoneally), 0%; in data set [4] (10 mg/kg intraperitoneally), 0%; in data set [4] (30 mg/kg intraperitoneally), 11%.
In the case of `O[C@@H]1[C@H](O)[C@@H](COCc2ccccc2)O[C@H]1n1cnc2c(NC3CCCc4ccccc43)ncnc21` (stereo partly drawn) [Example 20, N^6-tetralinyl-5'-benzylether-adenosine], the IC50 was found to be 5.84 µM in data set [1] and 46.7 µM in data set [2].
